Source: PubChem BioAssay (NCI)
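Grown in 96-well plates, cells were treated for 48 hours with each compound at five concentrations. Insufficient inhibition: endpoint recorded as highest concentration tested. TGI marks complete inhibition of growth.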

Columns and labels:
Test in all cases: inhibition of tumour cell growth, NCI panel, 48 h
OVCAR-8 ovarian = test system: OVCAR-8 ovarian
CCRF-CEM leukemia = test system: CCRF-CEM leukemia
HCT-116 colon = test system: HCT-116 colon
BT-549 breast = test system: BT-549 breast
OVCAR-4 ovarian = test system: OVCAR-4 ovarian
UACC-62 melanoma = test system: UACC-62 melanoma
LOX IMVI melanoma = test system: LOX IMVI melanoma
DU-145 prostate = test system: DU-145 prostate
SK-MEL-2 melanoma = test system: SK-MEL-2 melanoma
IGROV1 ovarian = test system: IGROV1 ovarian

Structure (SMILES)	TGI (OVCAR-8 ovarian) [µM]	TGI (CCRF-CEM leukemia) [µM]	TGI (HCT-116 colon) [µM]	TGI (BT-549 breast) [µM]	TGI (OVCAR-4 ovarian) [µM]	TGI (UACC-62 melanoma) [µM]	TGI (LOX IMVI melanoma) [µM]	TGI (DU-145 prostate) [µM]	TGI (SK-MEL-2 melanoma) [µM]	TGI (IGROV1 ovarian) [µM]
COC(=O)c1ccccc1C1CN=NC12Cc1c(ccc(C)c1C)C2=O (stereo not given)	> 100	> 100	> 100	> 100	> 100	> 100	> 100	> 100	> 100	> 100
CN(C)CCn1c(=O)c2ccc(NCCCN(C)CCCNc3ccc4c(=O)n(CCN(C)C)c(=O)n5c6ccc(O)cc6c(=O)c3c45)c3c(=O)c4cc(O)ccc4n(c1=O)c23	0.347	0.13	0.49	0.691	0.177	0.215	0.0619	0.655	0.275	0.392
Cc1nnc2n(c1=O)CCCN2C	> 100	> 100	> 100	> 100	> 100	> 100	> 100	> 100	> 100	> 100
O=C(ON=C1c2ccccc2C(Br)C(Br)c2ccccc21)c1ccccc1 (stereo not given)	30.8	2.05	28	35.7	30	32.7	9.12	31.8	> 63.6	6.27
O=CC(I)=C(c1ccccc1)c1ccccc1	53.8	> 69.9	27.2	30	27.3	34.5	28.6	32.7	33.4	37.5
CCOC1C=CC(=O)C(CO)O1 (stereo not given)	26	6.07	17.4	26.1	26.5	25.9	17.8	31.2	37.1	27.6
Cn1c2ccccc2n2c3ncccc3c(=O)c(C#N)c12	23.5	> 100	> 59	57.3	> 100	28.4	23.1	24.7	97.4	> 100
CN(O)C(=O)/C=C/c1ccc(OCc2cccc(Cl)c2)cc1	32.8	65.6	32.9	85.3	86.6	31.3	30.5	54.8	82.7	60.8
COc1ccc2c(c1)c1c(n2CCN2CCCCC2)-c2cccc(OC)c2CC1	32.3	27.3	> 100	41.6	> 100	32.9	38.7	> 100	32.3	29.8
Cc1ccc2cccc(-c3cccc4ccccc34)c2n1	57.7	50	95	> 100	> 100	61.9	31.3	> 100	37.5	> 100
COC(=O)/C=C(/C=C1/C(C#N)=C(N)N(c2ccc(Cl)cc2)C1(C)/C(=C\C(=O)OC)C(=O)OC)C(=O)OC (stereo not given)	33.7	> 100	31.2	30.2	60.5	27.4	32.4	89.2	72.2	60.2
CC(=O)O[C@@H](c1nccn1Cc1ccccc1)[C@H]1OC(C)(C)O[C@@H]1[C@H]1COC(C)(C)O1	> 100	> 100	> 100	> 100	> 100	> 100	> 100	> 100	> 100	> 100
NC1=CC(=O)c2c(O)ccc(O)c2C1=O	33	11.4	22.3	30.9	23.1	26.5	33.1	32.1	32.6	29.5
COc1ccc2ccc3oc(=O)c(C)cc3c2c1	> 100	> 100	> 100	> 100	> 100	> 100	> 100	> 100	> 100	> 100
CN(CCN1CCCC1)C1CCc2cc(Cl)c(Cl)cc2C1 (stereo not given)	30.8	> 100	25.5	28.5	51.1	19.4	29.7	26	35.2	29.3
CC(=O)Nc1nc(Cl)cc(NCC2(CO)CCC2)n1	> 100	> 100	> 100	> 100	> 100	> 100	> 100	> 100	> 100	> 100
